From patent US20120329721A1, “MEANS FOR PREVENTING AND TREATING CELLULAR DEATH AND THEIR BIOLOGICAL APPLICATIONS” (CHIESI FARMACEUTICI S.P.A., priority 2003, published 2012)
“Also recorded” adds a separate entry of the source. Like-named read-outs stand apart in the source and are kept apart here. Residues, ends and D or L forms follow the SMILES beside them. *: point of attachment. Cbz = O=C(OCc1ccccc1)*; d = 2'-deoxy (DNA); r = 2'-OH (RNA); CH2F = FC*

How the values were obtained:
Bax α = test: Bax cleavage (p22 to p18) in SD-neurons by Western blotting; assay type: cell-based, mouse; details: 24 hr-SD, Western Blotting Δ21 antibody; VDVAD/QVDOPH 100 μM, ALLN/ALLM 25 μM, E64d 25-50 μM, lactacystin 1-10 μM, epoxomycin 10 μM
Experimental: Neurons were lysed at RT in 25 mM Tris-HCl pH 7.4, 25 mM NaCl, 5 mM EDTA, 1% Triton X-100 supplemented by complete protease inhibitors cocktail (Roche). Protein concentration was determined using the Bio-Rad protein assay kit. Proteins (30 μg for caspase-2; 10 μg for Bax) were separated on 12.5% polyacrylamide gels and transferred to PVDF membranes (Amersham). […] The monoclonal anti-mouse caspase-2antibody (11B4, Alexis Biochemicals) was used at a 1:1000 dilution; polyclonal antibody (Δ21, Santa Cruz Biotechnology) raised against mouse Bax α deleted for the carboxy terminal 21 amino acids was used at a 1:200 dilution; polyclonal antibody (N20, Santa Cruz Biotechnology) raised against the amino terminus of Bax α (recognizing residues 11 to 30) was used at a 1:1000 dilution. Actin (42 kDa; Sigma; 1:5000) is used as an equal loading control. Immunoblotting of heat-shock protein 60 (HSP60) with a mouse monoclonal anti-HSP (Sigma; 1:400) was used to check the purity of the heavy membrane fraction enriched in mitochondria.

murine caspase-2 = test: Caspase-2 knock-down by siRNA in cortical neurons (RT-PCR, Western blotting, 10C6 immunostaining); assay type: cell-based, mouse; details: in situ antibody-based detection
cytochrome c = test: Immunodetection of cytochrome c release in SD-neurons; assay type: cell-based, mouse
[1] = target: T1, human recombinant caspase-2 (Homo sapiens, UniProt P42575); test: In vitro VDVAD-AMC cleavage by recombinant caspase-2; assay type: biochemical
T1 construct: purchased BIOMOL
T1 sequence (P42575 170-325 limits assumed): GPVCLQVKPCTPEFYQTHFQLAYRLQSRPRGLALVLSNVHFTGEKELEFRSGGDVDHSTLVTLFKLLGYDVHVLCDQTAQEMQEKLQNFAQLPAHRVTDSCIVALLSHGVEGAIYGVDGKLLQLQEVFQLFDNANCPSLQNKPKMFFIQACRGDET
T1 sequence (P42575 348-452 limits assumed): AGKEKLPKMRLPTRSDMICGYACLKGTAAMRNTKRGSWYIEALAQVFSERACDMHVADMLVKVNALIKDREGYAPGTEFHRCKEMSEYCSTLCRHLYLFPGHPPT
Experimental: Activity of human recombinant caspase-2 (BIOMOL QuantiZyme™ Assay System) was assessed in 100 μl assay buffer (50 mM HEPES, pH 7.4, 100 mM NaCl, 0.1% CHAPS, 10 mM DTT, 1 mM EDTA, 10% glycerol).

caspase-9 = test: In cellula caspase-9 like activity (FAM-LEHD-FMK FLICA) in SD-neurons; assay type: cell-based, mouse
Experimental: Neurons were incubated with 1/150 of the DMSO stock solution of the FLICA for 1 hr at 37° C. 7-AAD and Hoechst were added during the last 15 min. Then neurons were washed three times in washing buffer (CaspaTag™ Kit). […] Cleaved caspase-3 was evidenced in cellula by immunodetection using Phycoerythrin (PE)-conjugated polyclonal antibodies (Beckton Dickinson). Neurons were stained by 7-AAD, trypsinized and fixed in PBS containing 1% PFA and 20 μg/ml Actinomycin D (AD) for 20 min. […] After washings in PBS, PE-related fluorescence was analysed on the cytometer (Fl-2 channel). Z-val-Ala-Asp(OMe)-FMK (Z-VAD-FMK), Quinoline-Val-Asp (OMe)-CH2-O-Ph (Q-VD-OPH), Z-DEVD-FMK ([…], ICN) and Z-LEHD-FMK ([…], all purchased from ICN (Orsay, France), and 4-(2-Aminoethyl)benzenesulfonyl fluoride (AEBSF, Pefabloc SC, Roche, Meylan, France) were added at 100 μM at the initiation of serum deprivation. Sulforhodamine-DEVD-FMK, (CaspaTag™ Red Activity Kit) permitted to detect activated caspase-3 and FITC-Annexin V. Neurons were incubated with 1/900 of the DMSO stock solution of the FLICA, and 1× FITC-annexin V in 200 μl of annexin-buffer for 30 min at 37° C. Then neurons were washed three times in a buffer composed of 50% washing buffer and 50% annexin-buffer. […] For FM, FLICA was excited through the BP515-560 filter and its fluorescence was collected through the LP590 long pass emission filter.
Neurons were loaded with 1 μM JC-1 for 30 min at 37° C. […] JC-1 monomers were detected in the Fl-1 channel by FC. […] Activated caspase-2, -3, -8 and -9 were detected using specific FAM-conjugated peptides (called Fluorochrome Labeled Inhibitor of Caspase, FLICA: CaspaTag™ fluorescein Caspase Activity Kits, Q-Biogen, Illkirch, France; ApoFluor™ Caspase Detection Kits, ICN, Orsay, France): FAM-VDVAD-FMK, FAM-DEVD-FMK, FAM-LETD-FMK and FAM-LEHD-FMK, respectively. Neurons were incubated with FLICAs (1:150, CaspaTag™ or 1:500, ApoFluor™) for 1 hr at 37° C., then washed three times in washing buffer. […] Phosphatidylserine (PS) exposure to the outer leaflet of the plasma membrane was detected through the fixation of FITC conjugated-annexin V (Immunotech).

caspase-2 [2] = test: Caspase-2 activation (FLICA) in VP16-treated Jurkat cells; assay type: cell-based, human; details: VP16 10 μM, 7 hrs; inhibitors 50 μM
primary cortical neurons [3] = assay type: cell-based; details: for ΔΨm loss (drop) in SD-neurons: JC-1
Jurkat cells = test: VP16-induced cell death of Jurkat cells, cytoprotection assay; assay type: cell-based, human
Bax = Bax translocation to mitochondria in SD-neurons (Δ21 antibody immunostaining, subcellular fractionation); assay type: cell-based, mouse
[4] = test system: neonatal ischemic brain injury in 7 day-old rats; details: cited from earlier work
caspase-3 = test: In cellula caspase-3 like activity (FAM-DEVD-FMK FLICA or anti-cleaved caspase-3 antibody) in SD-neurons; assay type: cell-based, mouse
[5] = test system: neonatal ischemic brain injury in 7 day-old rats; details: rat, in vivo, ip
primary cortical neurons [6] = test: Cortical neuron death induced by other stimuli (ionomycin, staurosporine, β-amyloid 25-35, MPTP, 3-NPA, SNP); assay type: cell-based, mouse
caspase-2 [7] = test: In cellula caspase-2 like activity (FAM-VDVAD-FMK FLICA; Western blotting) in SD-neurons; assay type: cell-based, mouse
caspase-8 = test: In cellula caspase-8 like activity (FAM-LETD-FMK FLICA) in SD-neurons; assay type: cell-based, mouse
VDVAD-AMC = target: T2, VDVAD-AMC
T2 chain: VDVAD

[8] = inhibitor 2 μM, 50 μM VDVAD-AMC, caspase-2 125 U, 30 min at 37° C.
[9] = 24 hr-SD, inhibitors 100 μM (BA 25 μM)
[10] = 24 hr-SD, inhibitors 100 μM (BA 25 μM), listed as z-LEHD-fmk
[11] = 24 hr-SD, inhibitors 100 μM (BA 25 μM), listed as LEHD

## siRNA C2 m: irrelevant control siRNA with 4 mutations, duplex of SEQ ID No 3 and SEQ ID No 4 (chain 1 CAUCUACUCGAGACGGACATT; chain 2 UGUCCGUCUCGAGUAGAUGTT; sugars from the 5' end r19 d2, backbone not given here)
Bax α
  Bax cleavage (p18 Bax) in SD-neurons: has no effect
Murine caspase-2
  caspase-2 expression (gene silencing / knock-down): prevents neither gene/protein expression

## COC(=O)CCC(NC(=O)C(CC(C)C)NC(=O)OCc1ccccc1)C(=O)NC(Cc1cnc[nH]1)C(=O)NC(CC(=O)OC)C(=O)CF (stereo not shown) [Z-LEHD-FMK, N-benzyloxycarbonyl-Leu-Glu(Ome)-His-Asp(OMe)-fluoromethylketone] (Cbz-LE(OMe)HD(OMe)-CH2F; configuration not given here)
Cytochrome c; 24 hr-SD, inhibitors 100 μM
  cytochrome c release from mitochondria in SD-neurons: could not prevent cytochrome c release
Cytochrome c; 24 hr-SD, inhibitors 100 μM, listed as LEHD
  cytochrome c release from mitochondria in SD-neurons: fail to impair cytochrome c release
[1]; [8]
  inhibition of VDVAD-AMC cleavage by recombinant caspase-2: did not interfere highly; also recorded: not strongly inactivated
caspase-9; [9]
  caspase-9 like activity / activation in SD-neurons: prevents caspase-9 activation
caspase-9; [10]
  caspase-9 like activity / activation in SD-neurons: abolition of caspase-9 like activity
caspase-2 [2]
  caspase-2 activation in VP16-treated Jurkat cells: do not impair caspase-2 activation
Primary cortical neurons [3]; [9]
  ΔΨm loss (drop) in SD-neurons: does not impair; also recorded: does not impaired ΔΨm drop
  degradation phase of apoptosis: PS exposure, nuclear apoptosis (NA), PMP in SD-neurons: delays and prevents apoptotic bodies formation but not stage I-condensation; also recorded: prevents
Primary cortical neurons [3]; [11]
  ΔΨm loss (drop) in SD-neurons: does not impair ΔΨm drop
  degradation phase of apoptosis: PS exposure, nuclear apoptosis (NA), PMP in SD-neurons: preventing PS exposure, NA and PMP
Primary cortical neurons [3]; [10]
  degradation phase of apoptosis: PS exposure, nuclear apoptosis (NA), PMP in SD-neurons: abolishes PS exposure and PMP
Jurkat cells; VP16 10 μM, 7-8 hrs, inhibitors 50 μM
  ΔΨm loss in VP16-treated Jurkat cells: not abolished
Bax; 24 hr-SD, inhibitors 100 μM (furosemide 2 mM)
  Bax translocation (relocation) to mitochondria in SD-neurons: does not prevent mitochondrial Bax relocation
Bax; 24 hr-SD, inhibitors 100 μM (furosemide 2 mM), listed as LEHD
  Bax translocation (relocation) to mitochondria in SD-neurons: fail to impair Bax relocation

## COC(=O)CC(NC(=O)OC(C)(C)C)C(=O)CF [BOC-D-FMK, BOC-Asp(OMe)-fluoromethylketone]
[1]; [8]
  inhibition of VDVAD-AMC cleavage by recombinant caspase-2: completely inactive
[4]; Renolleau's model
  animals with aggravation: 60%
[4]; previous results obtained in this model
  reduction in infarct volume (previous results in this model): did not induce such a significant reduction in infarct volume
Primary cortical neurons [3]
  survival / protection of SD-neurons against cell death (apoptosis hallmarks overall): neither Z-VAD-FMK nor BOC-D-FMK (BOC-D) is able to delay or to abrogate; also recorded: inefficient
Primary cortical neurons [3]; SD model, compound added at the start of SD at the concentration of column '[ ], μM' (first concentration/target where two are printed)
  Survival: No

## COC(=O)CC(NC(=O)C(NC(=O)c1ccc2ccccc2n1)C(C)C)C(=O)COc1ccccc1 (stereo not shown) [Q-VD-OPH, Quinoline-Val-Asp (OMe)-CH2-O-Ph]
Cytochrome c
  cytochrome c release from mitochondria in SD-neurons: efficiently blocked
[1]
  inhibition of VDVAD-AMC cleavage by recombinant caspase-2: blocked
caspase-3
  caspase-3 like activity / activation in SD-neurons: strongly prevent; also recorded: completely inactivated; also recorded: prevent downstream cytochrome c release-dependent activation
caspase-3; 100 µM
  inhibition of caspase-3 like activity induced by serum deprivation: 95.3 +/- 5.6%
[5]
  animals that exhibited no infarct: 4
  infarct volume (% damage in the lesioned ipsilateral hemisphere): 12.4±2.6%
  mortality rate during ischemia or before killing: < 4%
  reduction in infarct volume: 44%
Primary cortical neurons [6]
  cell death induced by staurosporine or ionomycin: is not prevented
  protection from NA and PMP induced by β-amyloid (25-35), MPTP, 3-NPA, SNP or ionomycin: fails to provide protection, except for β-amyloid; also recorded: fail to prevent significantly
caspase-2 [7]
  caspase-2 like activity / activation in SD-neurons: completely inactivated; also recorded: abolish caspase-2 activation
caspase-8
  caspase-8 like activity in SD-neurons: completely inactivated
caspase-9
  caspase-9 like activity / activation in SD-neurons: completely inactivated; also recorded: prevent downstream cytochrome c release-dependent activation
Primary cortical neurons [3]
  Survival: Yes
  concentration required for optimal survival / higher protective effect: 100 µM
  degradation phase of apoptosis: PS exposure, nuclear apoptosis (NA), PMP in SD-neurons: strongly prevent; also recorded: fully blocked
  inhibition of PMP (7-AAD) induced by serum deprivation: 93.9+/−3.8%
  survival / protection of SD-neurons against cell death (apoptosis hallmarks overall): mostly rescued; also recorded: highly preserves both nuclear morphology and neurites integrity
Jurkat cells
  cell death induced by VP16 (survival): prevents cell death
  terminal nuclear alterations and PMP in VP16-treated Jurkat cells: mostly prevent
Bax
  Bax translocation (relocation) to mitochondria in SD-neurons: impair Bax translocation to mitochondria; also recorded: prevented

B1: human recombinant caspase-2 (BIOMOL QuantiZyme Assay System) (protein)
chain: GPVCLQVKPCTPEFYQTHFQLAYRLQSRPRGLALVLSNVHFTGEKELEFRSGGDVDHSTLVTLFKLLGYDVHVLCDQTAQEMQEKLQNFAQLPAHRVTDSCIVALLSHGVEGAIYGVDGKLLQLQEVFQLFDNANCPSLQNKPKMFFIQACRGDETDRGVDQQDGKNHAGSPGCEESDAGKEKLPKMRLPTRSDMICGYACLKGTAAMRNTKRGSWYIEALAQVFSERACDMHVADMLVKVNALIKDREGYAPGTEFHRCKEMSEYCSTLCRHLYLFPGHPPT
VDVAD-AMC
  cleavage of VDVAD-AMC (fluorescence emission at 510 nm upon excitation at 405 nm): The cleavage of 50 µM VDVAD-AMC by recombinant caspase-2 (125 U) was measured after 30 min at 37 °C
